# Experimental data taken from article PMC5218480 (PLoS ONE, 2017).
# System: MV-4-11 cells
# Experiment: Gene expression microarray analysis (Affymetrix PrimeView) and GSEA
# Format: cell-based, human
# Parameters: RFU PODN (11730768_x_at) / Fold change /veh PODN (11730768_x_at) / RFU LINC00158 (11744669_a_at) / Fold change /veh LINC00158 (11744669_a_at) / RFU DUSP10 (11751237_a_at) / Fold change /veh DUSP10 (11751237_a_at) / RFU ID3 (11757404_x_at) / Fold change /veh ID3 (11757404_x_at) / RFU PLEKHG5 (11737974_s_at) / Fold change /veh PLEKHG5 (11737974_s_at) / RFU LRRC4B (11730491_at) / Fold change /veh LRRC4B (11730491_at) / RFU GIMAP4 (11747438_a_at) / Fold change /veh GIMAP4 (11747438_a_at) / RFU KRT8 (11758183_x_at) / Fold change /veh KRT8 (11758183_x_at) / RFU CNN1 (11734310_a_at) / Fold change /veh CNN1 (11734310_a_at) / RFU VPS37D (11726825_at) / Fold change /veh VPS37D (11726825_at) / RFU C10orf10 (11716522_x_at) / Fold change /veh C10orf10 (11716522_x_at) / RFU KIR2DL2 /// KIR2DL4 /// KIR2DL5A /// KIR2DL5B /// KIR2DS1 /// KIR2DS2 /// KIR2DS3 /// KIR2DS4 /// KIR3DL3 /// KIR3DL3 /// KIR3DS1 (11738374_at) / Fold change /veh KIR2DL2 /// KIR2DL4 /// KIR2DL5A /// KIR2DL5B /// KIR2DS1 /// KIR2DS2 /// KIR2DS3 /// KIR2DS4 /// KIR3DL3 /// KIR3DL3 /// KIR3DS1 (11738374_at) / RFU C1QL1 (11718748_at) / Fold change /veh C1QL1 (11718748_at) / RFU TMPRSS4 (11747572_a_at) / Fold change /veh TMPRSS4 (11747572_a_at) / RFU HAMP (11756126_x_at) / Fold change /veh HAMP (11756126_x_at) / RFU RNFT2 (11725882_a_at) / Fold change /veh RNFT2 (11725882_a_at) / RFU NR4A2 (11747474_a_at) / Fold change /veh NR4A2 (11747474_a_at) / RFU ABCC12 (11746883_a_at) / Fold change /veh ABCC12 (11746883_a_at) / RFU TMEM136 (11760407_x_at) / Fold change /veh TMEM136 (11760407_x_at) / RFU CLDN22 /// WWC2 (11732394_at) / Fold change /veh CLDN22 /// WWC2 (11732394_at) / RFU HLA-DPB1 (11760878_x_at) / Fold change /veh HLA-DPB1 (11760878_x_at) / RFU SPINT1 (11716480_a_at) / Fold change /veh SPINT1 (11716480_a_at) / RFU GAP43 (11754022_s_at) / Fold change /veh GAP43 (11754022_s_at) / RFU A4GNT (11735810_at) / Fold change /veh A4GNT (11735810_at) / RFU PRB3 (11715151_x_at) / Fold change /veh PRB3 (11715151_x_at) / RFU TUBB4B (11761932_at) / Fold change /veh TUBB4B (11761932_at) / RFU CAPN14 (11732068_a_at) / Fold change /veh CAPN14 (11732068_a_at) / RFU TMCC2 (11721928_a_at) / Fold change /veh TMCC2 (11721928_a_at) / RFU IRGQ (11745062_a_at) / Fold change /veh IRGQ (11745062_a_at) / RFU FAM174B (11720279_a_at) / Fold change /veh FAM174B (11720279_a_at) / RFU TMPRSS4 (11748680_a_at) / Fold change /veh TMPRSS4 (11748680_a_at) / RFU FAM212B (11763350_a_at) / Fold change /veh FAM212B (11763350_a_at) / RFU PLEKHG5 (11743358_a_at) / Fold change /veh PLEKHG5 (11743358_a_at) / RFU ZSCAN30 (11745921_a_at) / Fold change /veh ZSCAN30 (11745921_a_at) / RFU CMKLR1 (11741424_a_at) / Fold change /veh CMKLR1 (11741424_a_at) / RFU LOC101060620 /// MAPK8IP1 (11723275_at) / Fold change /veh LOC101060620 /// MAPK8IP1 (11723275_at) / RFU SPTSSB (11747773_x_at) / Fold change /veh SPTSSB (11747773_x_at) / RFU PRSS12 (11739890_at) / Fold change /veh PRSS12 (11739890_at) / RFU BIN1 (11741810_x_at) / Fold change /veh BIN1 (11741810_x_at) / RFU WNT11 (11732464_a_at) / Fold change /veh WNT11 (11732464_a_at) / RFU C10orf10 (11716521_a_at) / Fold change /veh C10orf10 (11716521_a_at) / RFU C5orf56 (11738089_at) / Fold change /veh C5orf56 (11738089_at) / RFU CYB561 (11721691_x_at) / Fold change /veh CYB561 (11721691_x_at) / RFU ANKRD19P (11752326_a_at) / Fold change /veh ANKRD19P (11752326_a_at) / RFU OR2T12 /// OR2T33 /// OR2T8 (11738714_s_at) / Fold change /veh OR2T12 /// OR2T33 /// OR2T8 (11738714_s_at) / RFU VCAN (11748164_a_at) / Fold change /veh VCAN (11748164_a_at) / RFU JSRP1 (11732532_at) / Fold change /veh JSRP1 (11732532_at) / RFU KRTAP10-11 (11738290_x_at) / Fold change /veh KRTAP10-11 (11738290_x_at) / RFU MYO3A (11730013_a_at) / Fold change /veh MYO3A (11730013_a_at) / RFU EBF3 (11725865_a_at) / Fold change /veh EBF3 (11725865_a_at) / RFU CAMK2N1 (11719241_x_at) / Fold change /veh CAMK2N1 (11719241_x_at) / RFU C5orf56 (11738088_a_at) / Fold change /veh C5orf56 (11738088_a_at) / RFU OLFML3 (11715873_a_at) / Fold change /veh OLFML3 (11715873_a_at) / RFU LOC100653217 /// NTM (11731650_a_at) / Fold change /veh LOC100653217 /// NTM (11731650_a_at) / RFU MAPK11 (11762145_a_at) / Fold change /veh MAPK11 (11762145_a_at) / RFU FIZ1 (11724087_x_at) / Fold change /veh FIZ1 (11724087_x_at) / RFU OASL (11726364_x_at) / Fold change /veh OASL (11726364_x_at) / RFU SOX15 (11748057_x_at) / Fold change /veh SOX15 (11748057_x_at) / RFU CD79A (11719716_a_at) / Fold change /veh CD79A (11719716_a_at) / RFU HIST1H1D (11736915_at) / Fold change /veh HIST1H1D (11736915_at) / RFU CASKIN2 (11723855_a_at) / Fold change /veh CASKIN2 (11723855_a_at) / RFU LOC730098 (11760151_x_at) / Fold change /veh LOC730098 (11760151_x_at) / RFU OR4N2 (11742367_at) / Fold change /veh OR4N2 (11742367_at) / RFU PRRT2 (11749266_a_at) / Fold change /veh PRRT2 (11749266_a_at) / RFU SNX32 (11753110_a_at) / Fold change /veh SNX32 (11753110_a_at) / RFU CDHR5 (11726645_a_at) / Fold change /veh CDHR5 (11726645_a_at) / RFU RCAN1 (11760418_a_at) / Fold change /veh RCAN1 (11760418_a_at) / RFU FAM167A (11723789_a_at) / Fold change /veh FAM167A (11723789_a_at) / RFU FAM26E (11764081_at) / Fold change /veh FAM26E (11764081_at) / RFU ISYNA1 (11749810_s_at) / Fold change /veh ISYNA1 (11749810_s_at) / RFU ACY1 (11761880_at) / Fold change /veh ACY1 (11761880_at) / RFU 11764098_at / Fold change /veh 11764098_at / RFU SAMD14 (11745864_x_at) / Fold change /veh SAMD14 (11745864_x_at) / RFU NPB (11741838_a_at) / Fold change /veh NPB (11741838_a_at) / RFU TMPRSS6 (11731388_a_at) / Fold change /veh TMPRSS6 (11731388_a_at) / RFU KRTAP10-2 (11738614_at) / Fold change /veh KRTAP10-2 (11738614_at) / RFU ARHGAP8 /// PRR5-ARHGAP8 (11727945_x_at) / Fold change /veh ARHGAP8 /// PRR5-ARHGAP8 (11727945_x_at) / RFU KRTAP5-7 /// NADSYN1 (11734609_at) / Fold change /veh KRTAP5-7 /// NADSYN1 (11734609_at) / RFU RASL12 (11751679_a_at) / Fold change /veh RASL12 (11751679_a_at) / RFU CDKN2B (11736163_a_at) / Fold change /veh CDKN2B (11736163_a_at) / RFU PRF1 (11729649_at) / Fold change /veh PRF1 (11729649_at) / RFU, ZNF638 /// ZNF638-IT1 / Fold change vs veh, ZNF638 /// ZNF638-IT1 / RFU, PANK3 / Fold change vs veh, PANK3 / RFU, SH3YL1 / Fold change vs veh, SH3YL1 / RFU, ZEB2 / Fold change vs veh, ZEB2 / RFU, NRIP1 / Fold change vs veh, NRIP1 / RFU, PTTG1IP / Fold change vs veh, PTTG1IP / RFU, CAPN2 / Fold change vs veh, CAPN2 / RFU, MED14 / Fold change vs veh, MED14 / RFU, SNORA58 / Fold change vs veh, SNORA58 / RFU, C1orf63 / Fold change vs veh, C1orf63 / RFU, LRRFIP1 / Fold change vs veh, LRRFIP1 / RFU, NDUFAF7 / Fold change vs veh, NDUFAF7 / RFU, SLC12A2 / Fold change vs veh, SLC12A2 / RFU, IBTK / Fold change vs veh, IBTK / RFU, ESF1 / Fold change vs veh, ESF1 / Fold change vs veh, TMEM50B / RFU, TAOK1 / Fold change vs veh, TAOK1 / RFU, ACBD3 / Fold change vs veh, ACBD3 / RFU, TMA16 / Fold change vs veh, TMA16 / RFU, RWDD3 / Fold change vs veh, RWDD3 / RFU, BCAT1 / Fold change vs veh, BCAT1 / RFU, EDEM3 / Fold change vs veh, EDEM3 / RFU, TMEM33 / Fold change vs veh, TMEM33 / RFU, WDR75 / Fold change vs veh, WDR75 / RFU, AHCTF1 / Fold change vs veh, AHCTF1 / RFU, TFRC / Fold change vs veh, TFRC / RFU, ZDHHC17 / Fold change vs veh, ZDHHC17 / RFU, NOM1 / Fold change vs veh, NOM1 / RFU, ARL8B / Fold change vs veh, ARL8B / RFU, ZBTB11 / Fold change vs veh, ZBTB11 / RFU, TAMM41 / Fold change vs veh, TAMM41 / RFU, KIAA1704 /// LOC100996395 / Fold change vs veh, KIAA1704 /// LOC100996395 / RFU, ING1 / Fold change vs veh, ING1 / RFU, TRMT61B / Fold change vs veh, TRMT61B / RFU, FUBP3 / Fold change vs veh, FUBP3 / RFU, TP53 / Fold change vs veh, TP53 / RFU, TNKS2 / Fold change vs veh, TNKS2 / RFU, ZFP14 / Fold change vs veh, ZFP14 / RFU, ACTR2 / Fold change vs veh, ACTR2 / RFU, PPP3R1 / Fold change vs veh, PPP3R1 / RFU, PIK3R1 / Fold change vs veh, PIK3R1 / RFU, HNRNPA1 / Fold change vs veh, HNRNPA1 / RFU, RNF170 / Fold change vs veh, RNF170 / RFU, ZNF28 / Fold change vs veh, ZNF28 / RFU, RNGTT / Fold change vs veh, RNGTT / RFU, OGT / Fold change vs veh, OGT / RFU, BRD1 / Fold change vs veh, BRD1 / RFU, MARS / Fold change vs veh, MARS / RFU, ZNF655 / Fold change vs veh, ZNF655 / RFU, FAHD1 / Fold change vs veh, FAHD1 / RFU, BDP1 / Fold change vs veh, BDP1 / RFU, LRRCC1 / Fold change vs veh, LRRCC1 / RFU, ARID1A / Fold change vs veh, ARID1A / RFU, ZNF146 / Fold change vs veh, ZNF146 / RFU, ZNF330 / Fold change vs veh, ZNF330 / RFU, GPN3 / Fold change vs veh, GPN3 / RFU, C9orf123 / Fold change vs veh, C9orf123 / RFU, N4BP2L2 / Fold change vs veh, N4BP2L2 / RFU, ARFIP1 / Fold change vs veh, ARFIP1 / RFU, FAM179B / Fold change vs veh, FAM179B / RFU, BCL10 / Fold change vs veh, BCL10 / RFU, UHRF1BP1L / Fold change vs veh, UHRF1BP1L / RFU, BET1 / Fold change vs veh, BET1 / RFU, CNOT2 / Fold change vs veh, CNOT2 / RFU, ZNF268 / Fold change vs veh, ZNF268 / Fold change vs veh, ZNF507 / RFU, DGCR2 / Fold change vs veh, DGCR2 / RFU, WDSUB1 / Fold change vs veh, WDSUB1 / Fold change vs veh, HSP90B1 /// MIR3652 / RFU, ADSS / Fold change vs veh, ADSS / RFU, GK / Fold change vs veh, GK / RFU, ZNF148 / Fold change vs veh, ZNF148 / RFU, TAF9 / Fold change vs veh, TAF9 / RFU, SLC1A5 / Fold change vs veh, SLC1A5 / RFU, SLMO2 / Fold change vs veh, SLMO2 / RFU, ABCC4 / Fold change vs veh, ABCC4 / RFU, LOC101060439 /// RAP1B / Fold change vs veh, LOC101060439 /// RAP1B / RFU, RFX7 / Fold change vs veh, RFX7 / RFU, GTPBP10 / Fold change vs veh, GTPBP10 / RFU, CNEP1R1 / Fold change vs veh, CNEP1R1 / RFU, BIVM-ERCC5 /// ERCC5 / Fold change vs veh, BIVM-ERCC5 /// ERCC5 / RFU, ILF3 / Fold change vs veh, ILF3 / RFU 11762660_at / Fold change /veh 11762660_at / RFU VCAN (11757783_s_at) / Fold change /veh VCAN (11757783_s_at) / RFU DDX43 (11728927_at) / Fold change /veh DDX43 (11728927_at) / RFU KRT8 (11758188_x_at) / Fold change /veh KRT8 (11758188_x_at) / RFU NKD1 (11759106_at) / Fold change /veh NKD1 (11759106_at) / RFU SRD5A1 (11742802_a_at) / Fold change /veh SRD5A1 (11742802_a_at) / RFU TPSAB1 /// TPSB2 (11721975_s_at) / Fold change /veh TPSAB1 /// TPSB2 (11721975_s_at) / RFU GSTM3 (11746129_a_at) / Fold change /veh GSTM3 (11746129_a_at) / RFU IL23R (11737362_x_at) / Fold change /veh IL23R (11737362_x_at) / RFU TMEM51 (11727254_a_at) / Fold change /veh TMEM51 (11727254_a_at) / RFU PIWIL2 (11732686_x_at) / Fold change /veh PIWIL2 (11732686_x_at) / RFU ORM1 (11744905_x_at) / Fold change /veh ORM1 (11744905_x_at) / RFU CCDC152 (11743942_at) / Fold change /veh CCDC152 (11743942_at) / RFU ECM1 (11717891_a_at) / Fold change /veh ECM1 (11717891_a_at) / RFU IL23R (11748794_a_at) / Fold change /veh IL23R (11748794_a_at) / RFU TNFAIP8L3 (11732012_x_at) / Fold change /veh TNFAIP8L3 (11732012_x_at) / RFU MBOAT4 (11741988_at) / Fold change /veh MBOAT4 (11741988_at) / RFU 11764193_at / Fold change /veh 11764193_at / RFU TMEM53 (11763286_at) / Fold change /veh TMEM53 (11763286_at) / RFU MAGEB2 (11727129_at) / Fold change /veh MAGEB2 (11727129_at) / RFU TMEM200A (11744735_a_at) / Fold change /veh TMEM200A (11744735_a_at) / RFU CCDC152 (11751479_a_at) / Fold change /veh CCDC152 (11751479_a_at) / RFU FAM211A (11726209_a_at) / Fold change /veh FAM211A (11726209_a_at) / RFU RGS16 (11746705_a_at) / Fold change /veh RGS16 (11746705_a_at) / RFU VCAN (11755009_s_at) / Fold change /veh VCAN (11755009_s_at) / RFU RHOB (11743442_s_at) / Fold change /veh RHOB (11743442_s_at) / RFU RGS16 (11720943_a_at) / Fold change /veh RGS16 (11720943_a_at) / RFU RGS16 (11720944_at) / Fold change /veh RGS16 (11720944_at) / RFU, VPS4B / Fold change vs veh, VPS4B / RFU, CREB1 / Fold change vs veh, CREB1 / RFU, DNAJC13 / Fold change vs veh, DNAJC13 / RFU, GNAQ / Fold change vs veh, GNAQ / RFU, CDK5R1 / Fold change vs veh, CDK5R1 / RFU, ZRANB3 / Fold change vs veh, ZRANB3 / RFU, CUL4A / Fold change vs veh, CUL4A / RFU, CCNY / Fold change vs veh, CCNY / RFU, UFL1 / Fold change vs veh, UFL1 / RFU, COG3 / Fold change vs veh, COG3 / RFU, DIAPH2 / Fold change vs veh, DIAPH2 / RFU, SKA2 / Fold change vs veh, SKA2 / RFU, AFF3 / Fold change vs veh, AFF3 / RFU, LMF1 / Fold change vs veh, LMF1 / RFU, IPO11 / Fold change vs veh, IPO11 / RFU, DFFB / Fold change vs veh, DFFB / RFU, FOXP1 / Fold change vs veh, FOXP1 / RFU, CARD8 / Fold change vs veh, CARD8 / RFU, STRN3 / Fold change vs veh, STRN3 / RFU, ADK / Fold change vs veh, ADK / RFU, RASSF2 / Fold change vs veh, RASSF2 / RFU, WIPF1 / Fold change vs veh, WIPF1 / RFU, LARP1B / Fold change vs veh, LARP1B / RFU, RASA1 / Fold change vs veh, RASA1 / RFU, RB1 / Fold change vs veh, RB1 / RFU, PPFIA1 / Fold change vs veh, PPFIA1 / RFU, MAT2A / Fold change vs veh, MAT2A / RFU, CCT5 / Fold change vs veh, CCT5 / RFU, WDR92 / Fold change vs veh, WDR92 / RFU, CUX1 / Fold change vs veh, CUX1 / RFU, TTC7A / Fold change vs veh, TTC7A / RFU, TMEM135 / Fold change vs veh, TMEM135 / RFU, DEPTOR / Fold change vs veh, DEPTOR / RFU, CPM / Fold change vs veh, CPM / RFU, DNAJB6 / Fold change vs veh, DNAJB6 / RFU, CACNA2D3 / Fold change vs veh, CACNA2D3 / RFU, DTX4 / Fold change vs veh, DTX4 / RFU, TFCP2 / Fold change vs veh, TFCP2 / RFU, GMCL1 /// GMCL1P1 / Fold change vs veh, GMCL1 /// GMCL1P1 / RFU, AEBP2 / Fold change vs veh, AEBP2 / RFU, SNHG1 /// SNORD22 /// SNORD25 /// SNORD26 /// SNORD27 /// SNORD28 /// SNORD29 /// SNORD31 / Fold change vs veh, SNHG1 /// SNORD22 /// SNORD25 /// SNORD26 /// SNORD27 /// SNORD28 /// SNORD29 /// SNORD31 / Fold change (Aza/veh), C12orf56 (ProbeSet 11735607_a_at) / Fold change (ACY-1035/veh), C12orf56 (ProbeSet 11735607_a_at) / Fold change (Aza/veh), FGFR1OP (ProbeSet 11751329_s_at) / Fold change (ACY-1035/veh), FGFR1OP (ProbeSet 11751329_s_at) / Fold change (Aza/veh), VPS36 (ProbeSet 11739960_a_at) / Fold change (ACY-1035/veh), VPS36 (ProbeSet 11739960_a_at) / RFU SYPL1 (11715823_x_at) / Fold change /veh SYPL1 (11715823_x_at) / RFU IGFBP7 (11715501_s_at) / Fold change /veh IGFBP7 (11715501_s_at) / RFU REEP3 (11722064_at) / Fold change /veh REEP3 (11722064_at) / RFU IGLL1 (11728026_x_at) / Fold change /veh IGLL1 (11728026_x_at): dose or concentration left out as unconfirmed
# Details: MV-4-11 cells, 48 hours
compound,measurement,value
Nc1ccc(-c2cccs2)cc1NC(=O)c1ccc2c(c1)cc(C1CC1)n2CCN1CCOCC1 [ACY-1035],Fold change /veh NPB (11741838_a_at),0.93
